These results are taken from PubChem BioAssay (NCI).

Some test systems named below: U251 CNS; NCI-H23 lung; SN12C renal; MALME-3M melanoma; OVCAR-3 ovarian; RXF 393 renal; NCI-H522 lung; CCRF-CEM leukemia; CAKI-1 renal; SF-268 CNS.
Assay in all cases: NCI anticancer screen, dose series, 48 h

SMILES strings stand for the structures. Where “and” joins values, the source holds several entries; their conditions need not be identical. Equal values may be shown once.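 Five compound concentrations were applied to cells in 96-well plates for 48 hours; endpoints were derived by simple linear interpolation of the resulting dose-response curve. GI50 is the concentration that inhibits growth by half. TGI: concentration producing complete growth inhibition.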 Where only a bound is given, the exact number is not on record here.

Take `O=c1[nH]c2ccccc2n1C1CCN(CCCC(c2ccc(F)cc2)c2ccc(F)cc2)CC1`: the GI50 with U251 CNS is 1.49 µM and 5.24 µM; in the assay on NCI-H23 lung, 1.51 µM and 9.1 µM; in the assay with SN12C renal, 1500 nM; in the assay on MALME-3M melanoma, 1.71 µM; with OVCAR-3 ovarian it was 1.7 µM and 4.37 µM; in the assay with RXF 393 renal, 1170 nM and 1930 nM. Further, the GI50 in the assay with NCI-H522 lung was 1.73 µM; in the assay on CCRF-CEM leukemia, 2.3 µM; with CAKI-1 renal, 1.39 µM and 7.46 µM. The TGI in the assay on U251 CNS was 2.9 µM and 14.1 µM; with NCI-H23 lung, 3.18 µM and 24.3 µM; in the assay with SN12C renal, 2.97 µM and 23.4 µM; with MALME-3M melanoma, 3.42 µM and 5.09 µM; in the assay with OVCAR-3 ovarian it was 3.13 µM and 13.1 µM; with RXF 393 renal, 2.44 µM and 5.8 µM. Further, the TGI was 3.36 µM and 10.4 µM in the assay with NCI-H522 lung; 6.76 µM and 30.3 µM with CCRF-CEM leukemia; 2.96 µM and 20.9 µM in the assay on CAKI-1 renal; 28.9 µM with SF-268 CNS.
For the compound `C/C(=N\NC(=S)N1CCN(c2ccccn2)CC1)c1ncccn1`, the GI50 in the assay with U251 CNS was 0.0796 µM; in the assay with NCI-H23 lung, below 0.016 µM; in the assay on SN12C renal, 70.9 nM; with MALME-3M melanoma, 0.55 µM; with OVCAR-3 ovarian it was 0.213 µM; in the assay on RXF 393 renal, 1050 nM. For the same compound, the GI50 is 0.0859 µM with NCI-H522 lung, 0.447 µM in the assay on CAKI-1 renal and 0.791 µM in the assay with SF-268 CNS. The TGI with U251 CNS is 5.45 µM and 11.8 µM; in the assay on NCI-H23 lung, 4.81 µM and 19.3 µM; with SN12C renal, 18.1 µM; with MALME-3M melanoma, 5.93 µM and 18.3 µM; in the assay on OVCAR-3 ovarian, 7.5 µM and 15.3 µM; in the assay with RXF 393 renal it was 4.51 µM and 15.5 µM. Moreover, the TGI in the assay on NCI-H522 lung was 1.45 µM and 2.06 µM; in the assay on CCRF-CEM leukemia, 2.06 µM and 11.4 µM; in the assay with CAKI-1 renal it was 16 µM; with SF-268 CNS, 1.47 µM and 14.6 µM.
Regarding `Cc1ccc(NC(=O)/C(C#N)=C/c2ccccc2)c(C)c1`, the TGI in the assay on U251 CNS, in the assay on NCI-H23 lung, in the assay on SN12C renal, in the assay on MALME-3M melanoma, in the assay on OVCAR-3 ovarian and in the assay with RXF 393 renal was above 100 µM in each case. The TGI in the assay on NCI-H522 lung, in the assay with CCRF-CEM leukemia, with CAKI-1 renal and with SF-268 CNS was above 100 µM in each case.
On to `CCOC(=O)C(CCCNC(=O)OC(C)(C)C)N(Cc1ccc(OC)cc1OC)C(=O)CC(=O)CP(=O)(OCC)OCC` (stereo not drawn), for which the TGI in the assay with U251 CNS, in the assay on NCI-H23 lung, with SN12C renal, with MALME-3M melanoma, in the assay on OVCAR-3 ovarian and in the assay with RXF 393 renal was above 100 µM throughout. Besides, the TGI in the assay with NCI-H522 lung, in the assay with CCRF-CEM leukemia, in the assay on CAKI-1 renal and in the assay on SF-268 CNS was above 100 µM in each case.
On to `[Cl][Cu][Cl]`, for which the GI50 is above 10 µM in the assay with U251 CNS; above 10 µM in the assay with NCI-H23 lung; above 10000 nM in the assay on SN12C renal; above 10 µM with MALME-3M melanoma; above 10 µM in the assay on OVCAR-3 ovarian; above 10000 nM with RXF 393 renal. In addition, the GI50 with NCI-H522 lung, with CCRF-CEM leukemia, with CAKI-1 renal and with SF-268 CNS was above 10 µM throughout. Further, the TGI in the assay on U251 CNS, in the assay on NCI-H23 lung, with SN12C renal, in the assay on MALME-3M melanoma, with OVCAR-3 ovarian and with RXF 393 renal was above 10 µM in each case. The TGI with NCI-H522 lung, with CCRF-CEM leukemia, in the assay with CAKI-1 renal and in the assay with SF-268 CNS was above 10 µM each time.
On to `COc1ccc(S(=O)(=O)N2CCNCC2)cc1OC`, for which the GI50 in the assay with U251 CNS is above 100 µM; in the assay with NCI-H23 lung it was above 100 µM; in the assay with SN12C renal it was above 100000 nM; in the assay on MALME-3M melanoma, above 100 µM; with OVCAR-3 ovarian it was above 100 µM; in the assay on RXF 393 renal it was above 100000 nM. In addition, the GI50 in the assay on NCI-H522 lung, in the assay on CCRF-CEM leukemia, in the assay on CAKI-1 renal and in the assay with SF-268 CNS was above 100 µM each time. For the same compound, the TGI with U251 CNS, in the assay with NCI-H23 lung, in the assay with SN12C renal, in the assay on MALME-3M melanoma, in the assay on OVCAR-3 ovarian and with RXF 393 renal was above 100 µM throughout. In addition, the TGI in the assay on NCI-H522 lung, in the assay with CCRF-CEM leukemia, with CAKI-1 renal and in the assay on SF-268 CNS was above 100 µM in each case.
`CN1CCCC1c1cccnc1.O=C(O)c1ccccc1O.O=C([O-])c1ccccc1[OH2+].O=C([O-])c1ccccc1[OH2+].[Mn+2]` (stereo not drawn): the GI50 in the assay with U251 CNS is above 100 µM; with NCI-H23 lung, above 100 µM; with SN12C renal it was above 100000 nM; with MALME-3M melanoma, 33.1 µM; in the assay on OVCAR-3 ovarian it was 21.3 µM; in the assay with RXF 393 renal it was above 100000 nM. The GI50 in the assay with NCI-H522 lung was 16.7 µM; in the assay with CCRF-CEM leukemia, 24.8 µM; with CAKI-1 renal, above 100 µM; with SF-268 CNS it was 31.6 µM. The TGI in the assay on U251 CNS is above 100 µM; in the assay with NCI-H23 lung, above 100 µM; in the assay on SN12C renal it was above 100 µM; in the assay on MALME-3M melanoma it was 76.6 µM; in the assay on OVCAR-3 ovarian, 70.5 µM; in the assay with RXF 393 renal it was above 100 µM. Also, the TGI in the assay on NCI-H522 lung was 36.4 µM; with CCRF-CEM leukemia, 97.8 µM; in the assay with CAKI-1 renal, above 100 µM; in the assay with SF-268 CNS it was above 100 µM.
